SMILES strings stand for the structures.

The record followed here is the OPERA property sets (Mansouri et al. 2018).

In the case of `Cc1ccccc1OC1OC(CO)C(O)C(O)C1O` (centres undefined), the logP (as a rule, the decadic logarithm of the partition coefficient of the neutral form, usually between octanol and water) is -0.16.

With `CCN(CC)CCNC(=O)c1cc(S(C)(=O)=O)ccc1OC`, the logP is 0.9. With `CCC(C)n1nnc2ccccc21` (centres undefined) the figure was 2.31. Compound `CC(C)c1nnc(N)o1` came in with a log partition coefficient (logP) of 0.2.

Consider `OCCCn1nnc2ccccc21`, for which the logP was 0.91.

In the case of `CC(=O)C(C#N)=NNc1ccc2c(c1)OC(F)(F)C(F)(F)O2`, the logP amounted to 5.31. Then `CCc1cnc2cccc(C)n2c1=O`, with 1.79; and `N=C(N)NC(=O)Nc1ccc([N+](=O)[O-])c(Cl)c1`, with 1.79.

Regarding `CCCCOCc1c(CO)cnc(C)c1O`, the logP was found to be 1.34. With `CCC(=O)OCC(=O)[C@@]1(O)[C@@H](C)C[C@H]2[C@@H]3CCC4=CC(=O)C=C[C@]4(C)[C@@]3(F)[C@@H](O)C[C@@]21C` the figure was 3.06; with `CC(=O)Nc1cc(C)c(O)c(C)c1C`, 0.82; with `CC(C)(C)c1cc(OC2OC(CO)C(O)C(O)C2O)cc(C(C)(C)C)c1` (centres undefined), 2.73. Consider `CN(Cc1ccc(C#N)cc1)N=Nc1ccc(C(=O)O)cc1`, for which the log partition coefficient (logP) is 3.6. On to `OCCCCCCn1nnc2ccccc21`, for which the log partition coefficient (logP) stood at 1.71. Compound `CNC(=O)Oc1cccc([N+](=O)[O-])c1` displayed a logP of 1.39. With `Cc1cc([N+](=O)[O-])c2ccccc2[n+]1[O-]` the figure was 1.25. With `O=C(O)CCSc1c[nH]c2ccccc12` the figure was 2.15; with `COc1ccc2c(c1)N=C(C)NS2(=O)=O`, 0.56. Then `CCOC(=O)C(C#N)=NNc1ccc([N+](=O)[O-])cc1[N+](=O)[O-]`, with 4.14. Compound `ClC1C(Cl)C(Br)C(Cl)C(Br)C1Cl` (centres undefined) displayed a logP of 3.98. The logP values of the last two compounds are within 0.2 log units of each other. Then `O=S(=O)(Nc1ccccc1)c1cccc2cccnc12`, with 1.75; and `CCCOP(N)(=O)SCCC` (centres undefined), with 1.23. Consider `CN(C)C(=O)Nc1cccc(OCCc2ccccc2)c1`, for which the logP was determined as 3.39. With `COc1cn[nH]c1` the figure was 0.37. With `CN(C)N=[N+]([O-])c1ccccc1` the figure was 1.8. Compound `COCCN(CCOC)/N=N/c1nc[nH]c1C(N)=O` showed a logP of 0.03. Then `CC(C)c1cccc(OC2OC(CO)C(O)C(O)C2O)c1` (centres undefined), with 0.65; and `Clc1cccc(NC2=NCCN2)c1Cl`, with 1.94; and `CN(C)C(=O)Nc1cccc(O)c1`, with 0.51. For the compound `CCOC(=O)c1[nH]cnc1N=NN(C)C`, the logP was 0.44.

With `Cc1ccc(C(C)C)c(OC2OC(CO)C(O)C(O)C2O)c1` (centres undefined), the logP came out at 1.07. In the case of `O=C1CN=C(c2ccccc2Br)c2cc(Cl)ccc2N1`, the lipophilicity (logP) amounted to 3.17.

Turning to `CC(=O)C(C#N)=NNc1cccc(Cl)c1`, the log partition coefficient (logP) worked out at 3.9. `O=[N+]([O-])c1nccn1C1OC(CO)C(O)C1O` (centres undefined) returned a logP of -1.15. With `COc1c(C)cc(Cc2cnc(N)nc2N)cc1C` the figure was 2.19.

`CNc1ccc(C(=O)OCCN(C)C)cc1` showed a logP of 1.95. For `CCOC(=O)CCCCCn1nnc2ccccc21`, the logP is 2.68. As to `COCN1C(=O)CN=C(c2ccccc2F)c2cc(N)ccc21`, the logP turned out to be 1.31.

On to `CC(C)(C)c1ccc(OC2OC(CO)C(O)C(O)C2O)cc1` (centres undefined), for which the lipophilicity (logP) came out at 1.18.

Compound `CCN1C(=O)CN=C(c2ccccc2)c2cc(Cl)ccc21` yielded a logP of 3.21.

For `O=C1CCC2CCCCC2C1` (centres undefined), the lipophilicity (logP) amounted to 1.97. With `C=CCOn1c(=O)[nH]c(C)c(Br)c1=O` the figure was 0.32; with `CC1=Nc2ccc(C)cc2S(=O)(=O)N1`, 0.81. `CN(C)C(=O)Nc1ccc(Br)cc1` showed a lipophilicity (logP) of 2.19. In the case of `CC(=O)OCCN1CCS/C1=N/c1ncc([N+](=O)[O-])s1`, the lipophilicity (logP) is 1.88. Take `CCCCOC(=O)N(CCCC)SN(C)C(=O)ON=C(C)SC`: the lipophilicity (logP) was 4.2. Turning to `CN1C(=O)CN=C(c2ccccc2)c2cc(N)ccc21`, the logP turned out to be 1.46. Then `CNC(=O)C(CC(C)C)NC(C)=O` (centres undefined), with 0.14. Then `CCCCCCOC(=O)N(C)SN(C)C(=O)ON=C(C)SC`, with 4.2; and `CN1C(=O)OC(c2ccccc2)C1=O` (centres undefined), with 1.06; and `CN(C)c1ccc2c(c1)C(=O)OC2(C)C`, with 2.42. Compound `CN1C(C(=O)Nc2nccs2)C(=O)c2ccccc2S1(=O)=O` (centres undefined) showed a log partition coefficient (logP) of 1.64. Compound `CC(=O)CNc1ccccc1C(N)=O` came in with a logP of 0.61. Then `CCN(CC)CCNC(=O)c1cc(Br)ccc1OC`, with 3.2; and `O=C1CCCN1CCOc1ccc([N+](=O)[O-])cc1`, with 1.33.

`CSCN1C(=O)CN=C(c2ccccc2)c2cc(Cl)ccc21` yielded a log partition coefficient (logP) of 3.32.

For `OCC1OC(SCCCc2ccccc2)C(O)C(O)C1O` (centres undefined), the lipophilicity (logP) was found to be 0.38.

`NC1CC2CCC1c1ccccc12` (centres undefined) gave a lipophilicity (logP) of 2.29. `OCC1OC(Oc2ccc(I)c(OC3OC(CO)C(O)C(O)C3O)c2I)C(O)C(O)C1O` (centres undefined) gave a log partition coefficient (logP) of -1.31. Take `CCN(C)c1nc(N(C)CC)nc(N(C)CC)n1`: the lipophilicity (logP) was 3.9.

`CCOC(=O)c1cnc2ccccn2c1=O` returned a log partition coefficient (logP) of 0.25.

Compound `CC1=NS(=O)(=O)c2ccc(Cl)cc2N1` had a logP of 1.21. With `CNP(=O)(OC)Oc1ccc(Cl)cc1` (centres undefined), the lipophilicity (logP) was determined as 1.85. With `CC1(C)SC2C(NC(=O)Cc3ccc(Cl)cc3Cl)C(=O)N2C1C(=O)O` (centres undefined) the figure was 3.3; with `O=S(=O)(Nc1ccc(Cl)cc1Cl)C(F)(F)F`, 3.88; with `CCCCC1OC(=O)c2cc(NC(C)=O)ccc21` (centres undefined), 2.77. Compound `CC1=C(C(N)=O)SCCO1` yielded a log partition coefficient (logP) of -0.22.

`CC(C)N(N=O)C(=O)Nc1ccccc1` yielded a logP of 2.5. With `Cc1cnc2cccc(C)n2c1=O` the figure was 1.26.

Turning to `CCc1cnc(C=Cc2ccc([N+](=O)[O-])o2)nc1`, the logP came out at 1.55. On to `CN(C)C(=O)c1ccoc1`, for which the logP was found to be 0.24. With `Nc1nc(N)nc(-c2cc(Cl)ccc2Cl)n1` the figure was 1.97; with `CC1CNC(=Nc2ncc([N+](=O)[O-])s2)N1C` (centres undefined), 2.02; with `CCC(CC)(OC)C(=O)NC(N)=O`, 0.96. Regarding `O=[N+]([O-])c1nccn1CCS(=O)(=O)c1ccccc1`, the lipophilicity (logP) was 0.52. Then `O=NN(CCCl)C(=O)NC12CC3CC(CC(C3)C1)C2`, with 3.56; and `S=C=Nc1ccc2cc3ccccc3cc2c1`, with 5.7; and `COc1cc(-n2nc(C)cc2OC)nc(C)n1`, with 1.54. `CC1CN(C(=O)c2ccccc2)CC(C)N1N=O` (centres undefined) returned a logP of 1.04. In turn, `CCOC(=O)C(C#N)=NNc1cc(Cl)cc(Cl)c1` displayed a logP of 3.82. Then `CC(C)(C)CC1=Nc2ccc(Cl)cc2S(=O)(=O)N1`, with 2.71; and `CC12CCC(=O)C=C1C1(CC1)CC1C2CCC2(C)C1CCC21CCC(=O)O1` (centres undefined), with 3.15. With `COC1C(Cl)C(Cl)C(Cl)C(OC)C1OC` (centres undefined) the figure was 1.87; with `CN(CCO)N=Nc1ccccc1`, 1.71.

For `N#Cc1ccc(NS(=O)(=O)c2ccc(N)cc2)cc1`, the log partition coefficient (logP) was 1.83. Consider `OCC1OC(Oc2cc(OC3OC(CO)C(O)C(O)C3O)c(I)cc2I)C(O)C(O)C1O` (centres undefined), for which the lipophilicity (logP) was -0.25. With `COC(=O)C(C#N)=NNc1ccc(C(F)(F)F)cc1` the figure was 3.79; with `CC(=O)Nc1cnc2ccccc2c1`, 1.92; with `CNC1=NC(=O)C(=CC=Cc2ccc([N+](=O)[O-])o2)S1`, 1.35.

Take `CS(=O)(=O)c1cccc(CC(=O)O)c1`: the lipophilicity (logP) was 0.06. With `Cn1c(C(C)(C)O)cnc1[N+](=O)[O-]` the figure was 0.43; with `COc1cc(C)ccc1N=C1NCCN1`, 1.64. On to `O=C(NCC(O)CO)Nc1ccccc1` (centres undefined), for which the lipophilicity (logP) turned out to be 0.28. Consider `CS(=O)(=O)c1cccc(NS(=O)(=O)C(F)(F)F)c1`, for which the logP is 1.85. Compound `COc1cccc(N2C(=O)CCC2=O)c1` displayed a lipophilicity (logP) of 0.18. In turn, `N#CC(=Cc1ccccc1)C(=O)Nc1ccccc1` registered a logP of 3.41.

For `Cn1c(=O)nc(-c2ccccc2)c2ccccc21`, the log partition coefficient (logP) turned out to be 1.79. Then `COc1cccc(OC2OC(CO)C(O)C(O)C2O)c1` (centres undefined), with -0.52; and `CNC(=O)Oc1cccc(C(=O)OC)c1`, with 1.42; and `CCCCCCCCCCCC[n+]1cc(C)cc(C)c1.[I-]`, with 1.91.

For `Cc1ccc(C(=O)c2ccncc2)cc1`, the logP came out at 2.51. With `Clc1cccc(Cl)c1-c1ccccc1` the figure was 4.98. Then `CC1CN(N=O)CC(C)N1N=O` (centres undefined), with 0.08; and `CCCCCCCC[n+]1ccccc1.[I-]`, with -0.84.

`CCOC(=O)c1c(OC)cc(Cc2cnc(N)nc2N)cc1OC` returned a lipophilicity (logP) of 1.25. Then `CC1CN(N=O)C(C)CN1N=O` (centres undefined), with 0.15; and `O=[N+]([O-])c1cccc(OC2OC(CO)C(O)C(O)C2O)c1` (centres undefined), with -0.51; and `CCC(C)On1c(=O)[nH]c(C)c(Br)c1=O` (centres undefined), with 1.11. Take `OCC1OC(OC2CCCCC2)C(O)C(O)C1O` (centres undefined): the logP was -0.63.

`COP(=O)(OC)Oc1ccc([N+](=O)[O-])c(C)c1` gave a logP of 1.69.

The compound `Cc1cc(C)nc(-n2c(C)cc(=O)n2C)n1` showed a lipophilicity (logP) of 0.51. Then `O=C1CCC(=O)N1c1ccc(Cl)cc1`, with 0.96. Compound `CNC(=O)ON=Cc1cccc(Oc2ccccc2)c1` had a log partition coefficient (logP) of 3.12. On to `COc1ccc(Cc2cnc(N)nc2N)cc1O`, for which the lipophilicity (logP) was determined as 0.74. `CCNC1=NC(=O)C(=Cc2ccc([N+](=O)[O-])o2)S1`: the logP turned out to be 1.16. As for `CCCCO[N+](=O)[O-]`, the logP is 2.15. The compound `O=NN(CCCl)C(=O)NC1CCCCC1O` (centres undefined) registered a logP of 1.75. On to `O=C1CN=C(c2ccc(C(F)(F)F)cc2)c2ccccc2N1`, for which the lipophilicity (logP) turned out to be 3.34. Then `Nc1nc2ccccc2o1`, with 1.53. The compound `Nc1nc(N)nc(-c2ccc(Cl)cc2Br)n1` displayed a lipophilicity (logP) of 2.09. Regarding `COP(=O)(OC)Oc1ccc([N+](=O)[O-])cc1Cl`, the logP amounted to 1.83. Then `N#Cc1c(N)sc2ccccc12`, with 2.17; and `Cc1cnc(Cc2ccc(O)cc2)s1`, with 2.62. With `CC(C)NC(=O)C=Cc1ncc([N+](=O)[O-])s1` the figure was 1.76.
